Measurements: article PMC3476531, “Synergy of Peptide and Sugar in O-GlcNAcase Substrate Recognition” (Chemistry & Biology, 2012)
Numbering of substitutions follows the chain as printed. Where two headings read alike, the source gives them in different places.

Assays:
[1] = target: T1, hOGA Y69Q (Homo sapiens, UniProt O60502, Y69Q); test: hOGA Y69Q mutant glycopeptide hydrolysis, substrate competition assay; type: biochemical; conditions: hOGA point mutant Y69Q; competition with 4MU-GlcNAc; 37°C, pH 7.4; triplicate; read-out: Michaelis constant (KM) for hOGA Y69Q
T1 construct: GST (N); made in house; host or cells: transiently transfected HEK293 cells
T1 sequence (O60502 1-916 Y69Q): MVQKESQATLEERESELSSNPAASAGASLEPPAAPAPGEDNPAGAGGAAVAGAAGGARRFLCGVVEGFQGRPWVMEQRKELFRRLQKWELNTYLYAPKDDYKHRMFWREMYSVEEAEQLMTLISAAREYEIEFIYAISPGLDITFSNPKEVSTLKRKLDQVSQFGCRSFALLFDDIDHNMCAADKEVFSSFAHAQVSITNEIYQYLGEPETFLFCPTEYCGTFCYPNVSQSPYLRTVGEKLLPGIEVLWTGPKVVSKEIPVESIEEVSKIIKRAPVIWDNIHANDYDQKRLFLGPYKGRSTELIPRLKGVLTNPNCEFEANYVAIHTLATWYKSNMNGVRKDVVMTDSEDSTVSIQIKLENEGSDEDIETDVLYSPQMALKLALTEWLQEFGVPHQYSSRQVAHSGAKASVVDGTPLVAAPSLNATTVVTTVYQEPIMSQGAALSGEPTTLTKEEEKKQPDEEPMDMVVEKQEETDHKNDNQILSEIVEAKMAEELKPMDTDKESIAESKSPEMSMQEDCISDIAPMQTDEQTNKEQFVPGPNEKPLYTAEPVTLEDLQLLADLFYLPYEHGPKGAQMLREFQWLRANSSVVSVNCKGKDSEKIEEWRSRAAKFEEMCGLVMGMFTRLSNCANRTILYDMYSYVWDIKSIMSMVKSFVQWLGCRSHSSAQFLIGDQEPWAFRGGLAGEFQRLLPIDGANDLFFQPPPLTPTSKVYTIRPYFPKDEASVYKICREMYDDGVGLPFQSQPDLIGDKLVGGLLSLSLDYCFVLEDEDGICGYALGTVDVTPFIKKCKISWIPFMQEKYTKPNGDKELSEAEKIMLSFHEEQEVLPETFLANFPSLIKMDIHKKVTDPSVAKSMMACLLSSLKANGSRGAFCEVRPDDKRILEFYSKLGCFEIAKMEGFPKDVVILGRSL

[2] = target: T2, hOGA (Homo sapiens, UniProt O60502); test: hOGA glycopeptide hydrolysis, substrate competition assay with 4MU-GlcNAc reporter; type: biochemical; parameters: GST (N); made in house; host or cells: transiently transfected HEK293 cells; conditions: wild-type full-length hOGA, competition with 4MU-GlcNAc reporter substrate, 37°C, 50 mM citrate-phosphate buffer pH 7.4, 0.1 mg/ml BSA, triplicate, ± error of curve-fit, read-out: Michaelis constant (KM) of glycopeptide substrate for hOGA
T2 sequence (O60502 1-916): T1 sequence (O60502 1-916 Y69Q) with Q69Y
Procedure: Protein was expressed in transiently transfected HEK293 cells and purified via glutathione sepharose affinity chromatography.
hOGA and CpOGA glycopeptide hydrolysis assays were carried out as described previously ([Dorfmueller et al., 2006; Schimpl et al., 2010]) using multisubstrate enzyme kinetics with the fluorigenic pseudosubstrate 4MU-GlcNAc as the reporter substrate. […] Reactions were performed at 37°C in 50 mM citrate-phosphate buffer (pH 7.4) and 0.1 mg/ml BSA. Experiments were performed in triplicate, and data were analyzed and plotted with GraphPad PRISM.

[3] = target: T2, hOGA; parameters: GST (N); made in house; conditions: wild-type hOGA; substrate competition assay with 4MU-GlcNAc; value reproduced from earlier paper; ref Schimpl et al., 2010; read-out: Michaelis constant (KM) of glycopeptide substrate for hOGA; cited from earlier work
Source text: Table 1 Hydrophobic Stacking Interactions of Tyr69 Are Essential for Substrate Binding by hOGA | column: hOGA Peptide / VAHS(O-GlcNAc)GAK || Table 2 Intramolecular Hydrogen Bonds Stabilize the Substrate Conformation and Reduce the Km for hOGA | column: TAB1 Peptide (Ser395) || Figure 1 OGA Binds Different O-GlcNAc Glycopeptides with Similar Conformation but Different Affinities (A) Origin and sequence of O-GlcNAc peptides. The sequence of the longest peptides used is given, with residues observed in the crystal structure highlighted by colored boxes, and the shorter peptides indicated by brackets.

| Substance | Km [1] [µM] | Km ([2]; listed as PVSVPYS(O-GlcNAc)SAQSTS) [µM] | Km [2] [µM] | Km [3] [µM] |
| --- | --- | --- | --- | --- |
| PVSVPYS(O-GlcNAc)SAQSTS [TAB1 (Ser395) 13, 13-residue O-GlcNAc glycopeptide derived from TAB1 Ser395 site] | 3600 | 940 ± 80 | 900 ± 30 |  |
| p53 (Ser149) 11: 11-residue O-GlcNAc glycopeptide derived from p53 Ser149 site | 170 ± 40 |  | 21 ± 3 |  |
| VAHS(O-GlcNAc)GAK [hOGA (Ser405) 7, 7-residue O-GlcNAc glycopeptide derived from hOGA Ser405 site] | > 4000 |  |  | 790 ± 40 |
